# Measured values published in US12581252B2, “Substituted pyrrolo[3,4-b]pyridines as PI3K-α inhibitors” (Relay Therapeutics, Inc., priority 2020, dated 2026).
# Target: H1047R PIK3CA enzyme (Homo sapiens, UniProt P42336, H1047R)
# Assay: ADP-Glo Biochemical PIK3CA Kinase Assay
# H1047R PIK3CA enzyme, sequence (P42336 whole entry H1047R): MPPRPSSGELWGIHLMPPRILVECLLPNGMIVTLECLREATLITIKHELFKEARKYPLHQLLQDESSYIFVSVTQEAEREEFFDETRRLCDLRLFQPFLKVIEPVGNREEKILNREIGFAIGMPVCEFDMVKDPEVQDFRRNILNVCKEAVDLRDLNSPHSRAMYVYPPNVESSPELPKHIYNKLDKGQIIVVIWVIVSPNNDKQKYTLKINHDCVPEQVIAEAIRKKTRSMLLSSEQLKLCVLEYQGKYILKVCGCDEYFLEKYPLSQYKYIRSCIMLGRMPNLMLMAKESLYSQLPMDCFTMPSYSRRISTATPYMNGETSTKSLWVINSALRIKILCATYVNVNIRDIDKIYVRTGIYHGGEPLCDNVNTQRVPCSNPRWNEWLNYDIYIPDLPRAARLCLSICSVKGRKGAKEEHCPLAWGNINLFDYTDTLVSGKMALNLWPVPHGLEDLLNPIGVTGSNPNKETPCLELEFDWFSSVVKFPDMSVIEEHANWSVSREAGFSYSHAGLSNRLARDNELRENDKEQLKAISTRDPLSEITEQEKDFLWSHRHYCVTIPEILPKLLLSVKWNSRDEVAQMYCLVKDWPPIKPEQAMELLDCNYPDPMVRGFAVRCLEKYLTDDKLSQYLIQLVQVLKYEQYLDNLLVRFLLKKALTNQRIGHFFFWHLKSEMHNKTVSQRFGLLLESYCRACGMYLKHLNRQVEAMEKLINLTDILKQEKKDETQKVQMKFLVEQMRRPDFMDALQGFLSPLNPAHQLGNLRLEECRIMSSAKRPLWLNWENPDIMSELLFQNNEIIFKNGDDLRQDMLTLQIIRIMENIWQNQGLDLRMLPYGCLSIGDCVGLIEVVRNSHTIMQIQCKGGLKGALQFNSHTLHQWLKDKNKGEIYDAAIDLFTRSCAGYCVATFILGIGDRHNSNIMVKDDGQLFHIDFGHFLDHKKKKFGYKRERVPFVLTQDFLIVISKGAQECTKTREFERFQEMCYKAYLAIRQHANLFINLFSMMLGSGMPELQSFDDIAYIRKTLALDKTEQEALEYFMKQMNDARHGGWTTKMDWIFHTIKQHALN
# H1047R PIK3CA enzyme, sequence (P27986 whole entry partner): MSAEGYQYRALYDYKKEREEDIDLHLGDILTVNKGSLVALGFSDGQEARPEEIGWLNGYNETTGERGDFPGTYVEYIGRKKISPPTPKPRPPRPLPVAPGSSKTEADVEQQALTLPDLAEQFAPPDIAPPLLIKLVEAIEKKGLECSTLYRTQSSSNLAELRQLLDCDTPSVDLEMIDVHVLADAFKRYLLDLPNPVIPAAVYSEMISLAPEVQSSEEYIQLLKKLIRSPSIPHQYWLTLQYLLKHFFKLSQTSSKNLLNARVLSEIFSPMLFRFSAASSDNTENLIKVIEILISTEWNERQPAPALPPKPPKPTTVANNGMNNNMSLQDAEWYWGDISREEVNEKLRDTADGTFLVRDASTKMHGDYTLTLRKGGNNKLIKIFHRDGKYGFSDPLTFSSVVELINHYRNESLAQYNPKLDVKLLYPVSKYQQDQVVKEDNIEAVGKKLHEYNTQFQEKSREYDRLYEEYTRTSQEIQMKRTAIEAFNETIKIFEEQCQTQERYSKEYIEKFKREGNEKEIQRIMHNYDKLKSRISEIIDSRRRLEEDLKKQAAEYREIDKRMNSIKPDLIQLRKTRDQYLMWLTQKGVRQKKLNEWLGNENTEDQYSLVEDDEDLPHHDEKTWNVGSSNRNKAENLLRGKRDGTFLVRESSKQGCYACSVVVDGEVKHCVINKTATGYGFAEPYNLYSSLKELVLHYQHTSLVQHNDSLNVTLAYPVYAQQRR
row,Structure (SMILES),IC50
1,Cn1nc(C(F)F)cc1-c1cc(NC(=O)c2cc(F)cc(C(F)(F)F)c2)c2c(c1)C(=O)NC2c1cc(F)ccc1Cl (stereo not shown) [Compound I-1839],≤ 100 nM
2,O=C(Nc1cc(C2COCCO2)cc2c1C(c1cc(F)ccc1Cl)NC2=O)c1cc(F)cc(C(F)(F)F)c1 (stereo not shown) [Compound I-1361],100 to 500 nM
3,CS(=O)(=O)c1cc(-c2ccc3ncnn3c2)cc2c1C(c1cc(F)ccc1Cl)NC2=O (stereo not shown) [Compound I-1941],10000 to 100000 nM
4,O=C(Nc1cc(Br)cc2c1C(c1cc(F)ccc1Cl)NC2=O)c1cccc2c1OCCC2 (stereo not shown) [Compound I-601],10000 to 100000 nM
5,CC(C)(O)c1cnc2ccc(-c3cc(NC(=O)c4cc(F)cc(C(F)(F)F)c4)c4c(c3)C(=O)N[C@H]4c3cc(F)ccc3Cl)cc2c1 [Compound I-1604],≤ 100 nM
6,O=C(Cc1c(F)ccc(F)c1F)Nc1cc(Br)cc2c1C(c1cc(F)ccc1Cl)NC2=O (stereo not shown) [Compound I-563],10000 to 100000 nM
7,Cc1ccccc1C1NC(=O)c2cccc(NC(=O)c3cc(F)cc4c(C(=O)C(F)(F)F)c[nH]c34)c21 (stereo not shown) [Compound I-408],10000 to 100000 nM
8,O=C1NC(c2cc(F)ccc2Cl)c2c(NC(=O)N3CCC(F)(F)C3)cc(Br)cc21 (stereo not shown) [Compound I-482],1000 to 10000 nM
9,O=C(Nc1cccc2c1C(c1cc(-c3ccccc3)ccc1Cl)NC2=O)c1cc(F)cc(C(F)(F)F)c1 (stereo not shown) [Compound I-486],1000 to 10000 nM
10,Nc1nc2cc(-c3cc(NC(=O)c4cc(F)cc(C(F)(F)F)c4)c4c(c3)C(=O)N[C@@H]4c3cc(F)ccc3Cl)ccn2n1 [Compound I-1446],≤ 100 nM
11,O=C1NC(c2cc(F)ccc2Cl)c2c(NCC(=O)N3CCCCC3)cc(-c3ccc4ncnn4c3)cc21 (stereo not shown) [Compound I-2038],10000 to 100000 nM
12,O=C(CCc1ccccc1)Nc1cccc2c1C(c1cc(F)ccc1Cl)NC2=O (stereo not shown) [Compound I-2362],10000 to 100000 nM
13,"C[C@@]1(O)CN(C(=O)Nc2cccc3c2[C@@H](c2cc(F)ccc2Cl)NC3=O)c2ccccc21 (single isomer, unassigned) [Compound I-2204]",1000 to 10000 nM
14,"C[C@@H](C#N)Cn1cc(-c2cc(NC(=O)N3C[C@@H](O)c4cc(F)ccc43)c3c(c2)C(=O)N[C@@H]3c2cc(F)ccc2Cl)cn1 (single isomer, unassigned) [Compound I-2504]",1000 to 10000 nM
15,COc1ncc(-c2cc(NC(=O)c3cc(F)cc(C(F)(F)F)c3)c3c(c2)C(=O)N[C@@H]3c2cc(F)ccc2Cl)cn1 [Compound I-881],1000 to 10000 nM
16,O=C(Nc1cc(Br)cc2c1C(c1cc(F)ccc1Cl)NC2=O)c1ccc(Cl)c(C(F)(F)F)c1 (stereo not shown) [Compound I-952],100 to 500 nM
17,O=C(Nc1cccc2c1C(c1cc(F)ccc1Cl)NC2=O)c1cc(F)cc(C(F)(F)F)c1 (stereo not shown) [Compound I-372],≤ 100 nM
18,O=C(Nc1cc(-c2cnn3ncnc3c2)cc2c1C(c1cc(F)ccc1Cl)NC2=O)c1cc(F)cc(C(F)(F)F)c1 (stereo not shown) [Compound I-1824],≤ 100 nM
19,O=C(Nc1cc(OCc2cncnc2)cc2c1C(c1cc(F)ccc1Cl)NC2=O)c1cc(F)cc(C(F)(F)F)c1 (stereo not shown) [Compound I-1735],≤ 100 nM
20,O=C1NC(c2cc(F)ccc2Cl)c2c(NC(=O)C3CCCCO3)cc(-c3ccc4ncnn4c3)cc21 (stereo not shown) [Compound I-1803],10000 to 100000 nM
21,Cc1ccccc1C1NC(=O)c2c(P(C)(C)=O)ccc(NC(=O)c3cc(F)cc(C(F)(F)F)c3)c21 (stereo not shown) [Compound I-365],1000 to 10000 nM
22,COc1ccccc1C(=O)Nc1cc(Br)cc2c1C(c1cc(F)ccc1Cl)NC2=O (stereo not shown) [Compound I-471],10000 to 100000 nM

row,Structure (SMILES),IC50
1,O=C1NC(c2cc(F)ccc2Cl)c2c(NC(=O)N3CC4(CCC4)c4ccccc43)cc(Br)cc21 (stereo not shown) [Compound I-1383],100 to 500 nM
2,"C[C@H](O)c1cc(-c2ccc3ncnn3c2)cc2c1[C@@H](c1cc(F)ccc1Cl)NC2=O (single isomer, unassigned) [Compound I-2228]",10000 to 100000 nM
3,O=C(Nc1cccc2c1C(N1CCCCC1)NC2=O)c1cc(F)cc(C(F)(F)F)c1 (stereo not shown) [Compound I-537],10000 to 100000 nM
4,O=C(Nc1cc(-c2ccc3nnc(C(F)F)n3c2)cc2c1C(c1cc(F)ccc1Cl)NC2=O)c1cc(F)cc(C(F)(F)F)c1 (stereo not shown) [Compound I-1840],≤ 100 nM
5,Cc1ccccc1C1NC(=O)c2cccc(NC(=O)c3csc4c(F)cccc34)c21 (stereo not shown) [Compound I-36],100 to 500 nM
6,CN(C)S(=O)(=O)Cc1cc(NC(=O)c2cc(F)cc(C(F)(F)F)c2)c2c(c1)C(=O)NC2c1cc(F)ccc1Cl (stereo not shown) [Compound I-1275],≤ 100 nM
7,"N#Cc1cc(NC(=O)c2cc(F)cc(C(F)(F)F)c2)c2c(c1)C(=O)N[C@H]2c1cc(F)ccc1Cl (single isomer, unassigned) [Compound I-771]",≤ 100 nM
8,O=C(Nc1cc(-c2cc3ncnn3cc2F)cc2c1[C@H](c1cc(F)ccc1Cl)NC2=O)c1cc(F)cc(C(F)(F)F)c1 [Compound I-1868],≤ 100 nM
9,O=C(Nc1cc(Br)cc2c1[C@@H](c1c(F)cccc1Cl)NC2=O)c1cc(F)cc(C(F)(F)F)c1 [Compound I-679],1000 to 10000 nM
10,O=C(Nc1cc(-c2ccc3nccn3c2)cc2c1[C@H](c1cc(F)ccc1Cl)NC2=O)c1cc(F)cc(C(F)(F)F)c1 [Compound I-827],≤ 100 nM
11,O=C(O)Cc1ccccc1-c1cc(NC(=O)c2cc(F)cc(C(F)(F)F)c2)c2c(c1)C(=O)NC2c1cc(F)ccc1Cl (stereo not shown) [Compound I-1265],100 to 500 nM
12,N#Cc1ccc(C(F)(F)F)c(NC(=O)Nc2cc(Br)cc3c2C(c2cc(F)ccc2Cl)NC3=O)c1 (stereo not shown) [Compound I-1051],1000 to 10000 nM
13,Cn1c(Cl)cc(C(=O)Nc2cc(Br)cc3c2[C@@H](c2cc(F)ccc2Cl)NC3=O)cc1=O [Compound I-2096],10000 to 100000 nM
14,N#Cc1nn(C(F)F)cc1-c1cc(NC(=O)c2cc(F)cc(C(F)(F)F)c2)c2c(c1)C(=O)N[C@@H]2c1cc(F)ccc1Cl [Compound I-1889],1000 to 10000 nM
15,O=C1NC(c2cc(F)ccc2Cl)c2c(NC(=O)n3ccc4ccccc43)cc(Br)cc21 (stereo not shown) [Compound I-1318],≤ 100 nM
16,CC1(Nc2cc(NC(=O)c3cc(F)cc(C(F)(F)F)c3)c3c(c2)C(=O)N[C@@H]3c2cc(F)ccc2Cl)COC1 [Compound I-829],500 to 1000 nM
17,"O=C1N[C@@H](c2cc(F)ccc2Cl)c2c(NC(=O)N3C[C@@](O)(C(F)(F)F)c4cc(F)ccc43)cc(F)cc21 (single isomer, unassigned) [Compound I-2628]",1000 to 10000 nM
18,N#Cc1cccc(S(=O)(=O)Cc2cc(NC(=O)c3cc(F)cc(C(F)(F)F)c3)c3c(c2)C(=O)N[C@H]3c2cc(F)ccc2Cl)c1 [Compound I-1594],≤ 100 nM
19,O=C(Nc1cc(-c2cnn(C(F)F)c2)cc2c1C(c1cc(F)cc(F)c1)NC2=O)c1cc(F)cc(F)c1 (stereo not shown) [Compound I-2161],100 to 500 nM
20,O=C1NC(c2cc(F)ccc2Cl)c2c(NC(=O)C3CCCC(C(F)(F)F)N3)cc(-c3ccc4ncnn4c3)cc21 (mixture of isomers) [Compound I-1992],1000 to 10000 nM
21,N#Cc1nccn1Cc1cc(NC(=O)c2cc(F)cc(C(F)(F)F)c2)c2c(c1)C(=O)NC2c1cc(F)ccc1Cl (stereo not shown) [Compound I-1557],≤ 100 nM
22,"C[C@@H](C#N)Cn1cc(-c2cc(NC(=O)N3C[C@H](O)c4cc(F)ccc43)c3c(c2)C(=O)N[C@H]3c2cc(F)ccc2Cl)cn1 (single isomer, unassigned) [Compound I-2499]",1000 to 10000 nM

row,Structure (SMILES),IC50
1,CC(C)(O)COc1cc(NC(=O)c2cc(F)cc(C(F)(F)F)c2)c2c(c1)C(=O)N[C@H]2c1cc(F)ccc1Cl [Compound I-740],≤ 100 nM
2,N#Cc1ccc2c(c1)CCN2C(=O)Nc1cccc2c1C(c1cc(F)ccc1Cl)NC2=O (stereo not shown) [Compound I-2426],10000 to 100000 nM
3,O=C1NC(c2cc(F)ccc2Cl)c2c(CN3CCCCC3=O)cc(-c3ccc4ncnn4c3)cc21 (stereo not shown) [Compound I-1999],10000 to 100000 nM
4,O=C(Nc1cc(Nc2cn[nH]c2)cc2c1[C@H](c1cc(F)ccc1Cl)NC2=O)c1cc(F)cc(C(F)(F)F)c1 [Compound I-1258],≤ 100 nM
5,O=C(Nc1cc(-c2ccc3ncnn3c2)cc2c1C(c1cc(F)ccc1Cl)N(CO)C2=O)c1cc(F)cc(C(F)(F)F)c1 (stereo not shown) [Compound I-1342],100 to 500 nM
6,O=C1NC(c2cc(F)ccc2Cl)c2c(NC(=O)N3CCCC3C3CC3)cccc21 (stereo not shown) [Compound I-2408],10000 to 100000 nM
7,Cc1cc2ncnn2cc1-c1cc(NC(=O)c2cc(F)cc(C(F)(F)F)c2)c2c(c1)C(=O)N[C@H]2c1cc(F)ccc1Cl [Compound I-1874],≤ 100 nM
8,CC(O)C(CC(=O)Nc1cccc2c1C(c1cc(F)ccc1Cl)NC2=O)C(C)C(F)(F)F (stereo not shown) [Compound I-2198],10000 to 100000 nM
9,C=CC(=O)Nc1cc(NC(=O)c2cc(F)cc(C(F)(F)F)c2)c2c(c1)C(=O)NC2c1cc(F)ccc1Cl (stereo not shown) [Compound I-406],≤ 100 nM
10,N#Cc1cnccc1-c1cc(NC(=O)c2cc(F)cc(Cl)c2)c2c(n1)C(=O)NC2c1cc(F)ccc1Cl (stereo not shown) [Compound I-506],≤ 100 nM
11,N#CCCc1cc(NC(=O)c2cc(F)cc(C(F)(F)F)c2)c2c(c1)C(=O)N[C@@H]2c1cc(F)ccc1Cl (stereo in doubt) [Compound I-2170],10000 to 100000 nM
12,Nc1ncc(C#Cc2cc(NC(=O)c3cc(F)cc(C(F)(F)F)c3)c3c(c2)C(=O)NC3c2cc(F)ccc2Cl)cn1 (stereo not shown) [Compound I-1153],≤ 100 nM
13,CC(O)c1cc(NC(=O)c2cc(F)cc(C(F)(F)F)c2)c2c(n1)C(=O)NC2c1cc(F)ccc1Cl (stereo not shown) [Compound I-280],100 to 500 nM
14,CCOC(=O)Cc1cc(F)cc(C(=O)Nc2cc(CC(=O)OCC)cc3c2C(c2cc(F)ccc2Cl)NC3=O)c1 (stereo not shown) [Compound I-697],1000 to 10000 nM
15,CC(C)(O)COc1cc(NC(=O)c2cc(F)cc(C(F)(F)F)c2)c2c(n1)C(=O)NC2c1cc(F)ccc1Cl (stereo not shown) [Compound I-1421],100 to 500 nM
16,O=C1N[C@H](c2cc(F)ccc2Cl)c2c(NC(=O)N3CC4(CC4)c4cc(F)ccc43)cc(Br)cc21 (stereo in doubt) [Compound I-1510],1000 to 10000 nM
17,O=C(Nc1cc(-c2cnn3ncnc3c2)cc2c1[C@@H](c1cc(F)ccc1Cl)NC2=O)c1cc(F)cc(C(F)(F)F)c1 [Compound I-1871],100 to 500 nM
18,O=C1NC(c2cc(F)ccc2Cl)c2c(NC(=O)N3CCc4cc(Cl)ccc43)cc(Br)cc21 (stereo not shown) [Compound I-1269],1000 to 10000 nM
19,O=C(Nc1cc(Br)cc2c1[C@H](c1cc(Cl)ccc1Cl)NC2=O)c1cc(F)cc(C(F)(F)F)c1 [Compound I-765],≤ 100 nM
20,O=C1COC(c2cc(NC(=O)c3cc(F)cc(C(F)(F)F)c3)c3c(c2)C(=O)NC3c2cc(F)ccc2Cl)CN1 (stereo not shown) [Compound I-1308],≤ 100 nM
